Results reported in patent publication US7524880B2, “Crystalline form of a substituted pyrrolidine compound” (Theravance, Inc., priority 2004, dated 2009).
Structures can show the parent of a compound that is named as a salt.

Experiments:
[1] = test system: MCh-induced depressor responses; test: Methacholine-induced depressor responses in conscious guinea pigs; assay type: in vivo; conditions: conscious guinea pig, inhalation
Description: Healthy, adult, male Sprague-Dawley guinea pigs (Harlan, Indianapolis, Ind.), weighing between 200 and 300 g were used in these studies. Under isoflurane anesthesia (to effect), animals were instrumented with common carotid artery and jugular vein catheters (PE-50 tubing). The catheters were exteriorized utilizing a subcutaneous tunnel to the subscapular area. All surgical incisions were sutured with 4-0 Ethicon Silk and the catheters locked with heparin (1000 units/mL). Each animal was administered saline (3 mL, SC) at the end of surgery as well as buprenorphine (0.05 mg/kg, IM). Animals were allowed to recover on a heating pad before being returned to their holding rooms.
Approximately 18 to 20 hours following surgery, the animals were weighed and the carotid artery catheter on each animal was connected to a transducer for recording arterial pressure. Arterial pressure and heart rate was recorded using a Biopac MP-100 Acquisition System. Animals were allowed to acclimate and stabilize for a period of 20 minutes.
Each animal was challenged with methylcholine (MCh) (0.3 mg/kg, iv) administer through the jugular venous line and the cardiovascular response was monitored for 10 minutes. […] At 1.5 and 24 h post-dosing, the animals were re-challenged with MCh (0.3 mg/kg, iv) and the hemodynamic response was determined. […]

[2] = Thermal analysis (DSC/TGA); assay type: physicochemical; conditions: heating ramp 5° C./min, ambient to about 300° C.
Protocol: Differential scanning calorimetry (DSC) was performed using a TA Instruments Model Q-10 module with a Thermal Analyst controller. Data were collected and analyzed using TA Instruments Thermal Solutions software. A sample of about 1 mg was accurately weighed into an aluminum pan with lid. The sample was evaluated using a linear heating ramp of 5° C./min from ambient temperature to approximately 300° C. The DSC cell was purged with dry nitrogen during use. A representative DSC trace for a sample of the crystalline naphthalene-1,5-disulfonic acid salt of 2-[(S)-1-(8-methylaminooctyl)pyrrolidin-3-yl]-2,2-diphenylacetamide of Example 5 is shown in FIG. 2.
Thermogravimetric analysis (TGA) was performed using a TA Instruments Model Q-50 module equipped with high resolution capability. Data were collected and analyzed using TA Instruments Thermal Solutions software. A sample weighing about 10 mg was placed onto a platinum pan and scanned with a high resolution-heating rate from ambient temperature to 300° C. The balance and furnace chambers were purged with nitrogen flows during use. A representative TGA trace for a sample of the crystalline naphthalene-1,5-disulfonic acid salt of 2-[(S)-1-(8-methylaminooctyl)pyrrolidin-3-yl]-2,2-diphenylacetamide of Example 5 is shown in FIG. 2.

[3] = Solution state stability assessment (HPLC); assay type: physicochemical; conditions: for change in purity (HPLC): 1 mg/mL and 0.1 mg/mL in normal saline, 10 mM citrate pH 5
Protocol: Samples of the crystalline naphthalene-1,5-disulfonic acid salt of 2-[(S)-1-(8-methylaminooctyl)pyrrolidin-3-yl]-2,2-diphenylacetamide of Example 5 were used to prepare an inhalation solution consisting of 1 mg/mL and 0.1 mg/mL salt in normal saline with 10 mM citrate buffer adjusted to pH 5. The resulting solutions were placed in 3 mL borosilicate vials and stoppered with Teflon grey plug stoppers. The solutions were then stored at −20° C., 5° C., 30° C., 60° C. The samples were analyzed according to the HPLC method described in Example 10. After approximately six months for the solutions stored at −20° C., 5° C., and 30° C. there was no detectable change in purity observed (less than 0.5%) for samples stored at 60° C. less than 5% change in purity was observed.

[4] = Dynamic moisture sorption assessment; assay type: physicochemical; conditions: for deliquescence: exposed to atmospheric moisture
Protocol: A dynamic moisture sorption (DMS) assessment (also known as a moisture sorption-desorption profile) was performed for a sample of a crystalline naphthalene-1,5-disulfonic acid salt of 2-[(S)-1-(8-methylaminooctyl)pyrrolidin-3-yl]-2,2-diphenylacetamide (prepared according to the procedure of Example 5) using a VTI atmospheric microbalance, SGA-100 system (VTI Corp., Hialeah, Fla. 33016). A sample size of approximately 10 mg was used and the humidity was set at the ambient value at the start of the analysis. A typical DMS analysis consisted of three scans: ambient to 2% RH, 2% RH to 90% RH, 90% RH to 5% RH at a scan rate of 5% RH/step. The mass was measured every two minutes and the RH was changed to the next value (+/−5% RH) when the mass of the sample was stable to within 0.01% for 5 consecutive points.
The salt has an acceptable 1.9% weight gain when it exposed to a broad humidity range from 2% RH up to 90% RH and it has a less than 1% weight gain in the humidity range of 40% RH to 75% RH.

[5] = Solid state stability assessment (HPLC); assay type: physicochemical
Protocol: Samples of the crystalline naphthalene-1,5-disulfonic acid salt of 2-[(S)-1-(8-methylaminooctyl)pyrrolidin-3-yl]-2,2-diphenylacetamide of Example 5, about 30 mg each, were stored in multiple 3 mL borosilicate vials at −20° C. (closed container), 40° C./75% RH (open and closed container), and at 80° C. (closed container). At specific intervals, the entire contents of a representative vial was analyzed by the following HPLC method:
Samples were prepared as 1 mg/mL solutions using 50% EtOH and 50% citrate buffer (10 mM pH 5 in normal saline). These solutions were then injected onto the HPLC.
The initial purity of the samples was 99.5% as determined by HPLC area percentage. […] (closed container) and 40° C./75% RH (open and closed container).

[6] = Micronization with a jet mill, comparison with unmicronized material; assay type: physicochemical; conditions: micronized compared to unmicronized material
Description: A sample of a crystalline naphthalene-1,5-disulfonic acid salt of 2-[(S)-1-(8-methylaminooctyl)pyrrolidin-3-yl]-2,2-diphenylacetamide (prepared according to the procedure of Examples 4 and 5) was micronized with a jet mill to give a free-flowing white powder with birefringence observed upon microscopic examination.

[7] = solid, 3 months, all conditions

Q: Which “apparent lung-selectivity index (ratio of anti-depressor ID50 to bronchoprotective ID50)” value [1] does the source give for CNCCCCCCCCN1CC[C@@H](C(C(N)=O)(c2ccccc2)c2ccccc2)C1 [Example 1, 2-[(S)-1-(8-Methylaminooctyl)pyrrolidin-3-yl]-2,2-diphenylacetamide] here?
A: greater than 5

Q: Which results are given for CNCCCCCCCCN1CC[C@@H](C(C(N)=O)(c2ccccc2)c2ccccc2)C1 [Example 5, 2-[(S)-1-(8-Methylaminooctyl)pyrrolidin-3-yl]-2,2-diphenylacetamide Naphthalene-1,5-disulfonic Acid Salt]?
A: thermal decomposition (DSC) [2]: no thermal decomposition below 200 °C; change in purity (HPLC) ([3]; approximately six months at 60° C.): less than 5%; change in purity (HPLC) ([3]; approximately six months at −20° C., 5° C. and 30° C.): less than 0.5%; change in pH values of solutions ([3]; inhalation solutions in normal saline, 10 mM citrate pH 5, approximately six months): no appreciable change; weight gain on exposure to humidity ([4]; 2% RH up to 90% RH): 1.9%; weight gain on exposure to humidity ([4]; 2% RH up to 90% RH, listed as crystalline naphthalene-1,5-disulfonic acid salt of the compound of formula I): less than 2%; deliquescence [4]: not deliquescent; deliquescence ([4]; listed as crystalline naphthalene-1,5-disulfonic acid salt): not to be deliquescent; weight gain on exposure to humidity ([4]; humidity range of 40% RH to 75% RH): less than 1%; hygroscopicity (moderate) ([4]; reversible sorption/desorption profile): < 5%; chemical degradation by HPLC ([5]; 6 months storage at 40° C. and 75% relative humidity): no detectable chemical degradation; change in the appearance of the material [5, 7]: no observable change; differences by DSC and TGA [5, 7]: no detectable differences; change in chemical purity (HPLC) ([5]; solid, 3 months, all conditions: −20° C. closed, 40° C./75% RH open and closed, 80° C. closed): less than 0.5%; chemical or physical differences ([5]; solid, 6 months at −20° C. (closed) and 40° C./75% RH (open and closed)): no detectable chemical or physical differences; chemical degradation by HPLC ([5]; storage for 28 days at 40° C. and 75% relative humidity): less than 0.5%

Q: With CNCCCCCCCCN1CC[C@@H](C(C(N)=O)(c2ccccc2)c2ccccc2)C1 [Example 14, naphthalene-1,5-disulfonic acid salt of 2-[(S)-1-(8-methylaminooctyl)pyrrolidin-3-yl]-2,2-diphenylacetamide] as the compound, how does the “change in PXRD pattern, TGA trace, DSC trace, DMS trace, chemical purity, chiral purity and moisture content” value [6] read?
A: No change was observed
